In patent US9867833B2, “Serine/threonine kinase inhibitors” (GENENTECH, INC., priority 2013, dated 2018):

target: human ERK-2 (Mitogen Activated Kinase 1) (Homo sapiens (Human), UniProt P28482); test: ERK-2 Enzymatic Assay; assay type: biochemical; settings: human ERK-2 enzyme 5 nM, 25 μM ATP, S/T17 peptide substrate; isomer = configuration of CR2R3
In short: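 Recombinant human ERK-2 (aa 8-360, N-terminal 6-His, E. coli) with 3-fold serially diluted compound. Per-well rates from linear fits converted to percent of control; IC50 by four-parameter fit.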

Chain of human ERK-2 (Mitogen Activated Kinase 1) (P28482 8-360): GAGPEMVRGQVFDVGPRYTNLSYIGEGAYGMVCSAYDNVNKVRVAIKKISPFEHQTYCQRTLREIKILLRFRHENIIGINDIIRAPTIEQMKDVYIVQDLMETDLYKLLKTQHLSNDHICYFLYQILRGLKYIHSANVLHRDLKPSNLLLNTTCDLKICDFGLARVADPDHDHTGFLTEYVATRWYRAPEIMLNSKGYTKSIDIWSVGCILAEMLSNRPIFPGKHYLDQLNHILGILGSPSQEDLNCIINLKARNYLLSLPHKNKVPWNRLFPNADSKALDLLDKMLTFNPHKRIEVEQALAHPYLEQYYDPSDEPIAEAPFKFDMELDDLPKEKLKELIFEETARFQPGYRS

| SMILES | IC50 |
| --- | --- |
| Clc1cnn(C[C@@H]2CCOc3cc(-c4ccnc(NC5CCOCC5)n4)cc4nnc2n34)c1 [(S) I-110, 4-(9-((4-chloro-1H-pyrazol-1-yl)methyl)-8,9-dihydro-7H-6-oxa-1,2,2a^1-triazabenzo[cd]azulen-4-yl)-N-(tetrahydro-2H-pyran-4-yl)pyrimidin-2-amine] | 0.14 nM |
| CC(C)C[C@@H]1c2nnc3cc(-c4ccnc(Nc5ccnn5C)n4)cc(n23)N(C)C(=O)N1C [Compound I-19, (R)-9-isobutyl-6,8-dimethyl-4-(2-((1-methyl-1H-pyrazol-5-yl)amino)pyrimidin-4-yl)-8,9-dihydro-1,2,2a^1,6,8-pentaazabenzo[cd]azulen-7(6H)-one] | 1.15 nM |
| CC(C)C[C@@H]1c2nnc3cc(-c4ccnc(Nc5ccnn5C)n4)cc(n23)NC(=O)N1C [Compound I-23, (R)-9-isobutyl-8-methyl-4-(2-((1-methyl-1H-pyrazol-5-yl)amino)pyrimidin-4-yl)-8,9-dihydro-1,2,2a^1,6,8-pentaazabenzo[cd]azulen-7(6H)-one] | 1.12 nM |
| CC(C)C[C@H]1NC(=O)N(C)c2cc(-c3ccnc(Nc4ccnn4C)c3)cc3nnc1n23 [Compound I-25, (R)-9-isobutyl-6-methyl-4-(2-((1-methyl-1H-pyrazol-5-yl)amino)pyridin-4-yl)-8,9-dihydro-1,2,2a^1,6,8-pentaazabenzo[cd]azulen-7(6H)-one] | 4.28 nM |
| COc1ccc(C[C@H]2NC(=O)N(C)c3cc(-c4ccnc(Nc5ccnn5C)c4)cc4nnc2n34)cc1 [Compound I-26, (R)-9-(4-methoxybenzyl)-6-methyl-4-(2-((1-methyl-1H-pyrazol-5-yl)amino)pyridin-4-yl)-8,9-dihydro-1,2,2a^1,6,8-pentaazabenzo[cd]azulen-7(6H)-one] | 0.39 nM |
| CN1C(=O)N[C@H](Cc2cccc(F)c2)c2nnc3cc(-c4ccnc(Nc5ccnn5C)n4)cc1n23 [Compound I-39, (R)-9-(3-fluorobenzyl)-6-methyl-4-(2-((1-methyl-1H-pyrazol-5-yl)amino)pyrimidin-4-yl)-8,9-dihydro-1,2,2a^1,6,8-pentaazabenzo[cd]azulen-7(6H)-one] | 0.215 nM |
| CN1C(=O)N[C@H](CC2CC2)c2nnc3cc(-c4ccnc(Nc5ccnn5C)n4)cc1n23 [Compound I-51, (R)-9-(cyclopropylmethyl)-6-methyl-4-(2-((1-methyl-1H-pyrazol-5-yl)amino)pyrimidin-4-yl)-8,9-dihydro-1,2,2a^1,6,8-pentaazabenzo[cd]azulen-7(6H)-one] | 2.34 nM |
| CN1C(=O)CC(Cc2ccc(F)cc2)c2nnc3cc(-c4ccnc(Nc5ccnn5C)n4)cc1n23 (stereo not drawn) [Compound I-79, 9-(4-fluorobenzyl)-6-methyl-4-(2-((1-methyl-1H-pyrazol-5-yl)amino)pyrimidin-4-yl)-8,9-dihydro-1,2,2a^1,6-tetraazabenzo[cd]azulen-7(6H)-one] | 17 nM |
| Cn1nccc1Nc1cc(-c2cc3n4c(nnc4c2)C(Cc2ccc(F)c(Cl)c2)CO3)ccn1 (stereo not drawn) [Compound I-83, 4-(3-(3-Chloro-4-fluorobenzyl)-3,4-dihydro-5-oxa-1,2,2a^1-triazaacenaphthylen-7-yl)-N-(1-methyl-1H-pyrazol-5-yl)pyridin-2-amine] | 0.111 nM |
| CN1C(=O)C[C@@H](Cc2ccc(Cl)cn2)c2nnc3cc(-c4ccnc(Nc5ccnn5C)c4)cc1n23 [Compound I-94, (R)-9-((5-chloropyridin-2-yl)methyl)-6-methyl-4-(2-((1-methyl-1H-pyrazol-5-yl)amino)pyridin-4-yl)-8,9-dihydro-1,2,2a^1,6-tetraazabenzo[cd]azulen-7(6H)-one] | 598 nM |
| Cn1nccc1Nc1nccc(-c2cc3n4c(nnc4c2)C(C2CC2)CO3)n1 (stereo not drawn) [Compound I-95, 4-(3-cyclopropyl-3,4-dihydro-5-oxa-1,2,2a^1-triazaacenaphthylen-7-yl)-N-(1-methyl-1H-pyrazol-5-yl)pyrimidin-2-amine] | 0.751 nM |
| Cn1nccc1Nc1cc(-c2cc3n4c(nnc4c2)C(Cc2cccc(Cl)c2)CO3)ccn1 (stereo not drawn) [Compound I-96, 4-(3-(3-chlorobenzyl)-3,4-dihydro-5-oxa-1,2,2a^1-triazaacenaphthylen-7-yl)-N-(1-methyl-1H-pyrazol-5-yl)pyridin-2-amine] | 0.149 nM |
| CN1C(=O)N(Cc2ccc(Cl)cc2)c2nnc3cc(-c4ccnc(Nc5ccnn5C)n4)cc1n23 [Compound I-98, 3-(4-chlorobenzyl)-5-methyl-7-(2-((1-methyl-1H-pyrazol-5-yl)amino)pyrimidin-4-yl)-3H-1,2,2a^1,3,5-pentaazaacenaphthylen-4(5H)-one] | 0.273 nM |
| CN1C(=O)N(Cc2cc(F)cc(F)c2)c2nnc3cc(-c4ccnc(Nc5ccnn5C)n4)cc1n23 [Compound I-99, 3-(3,5-difluorobenzyl)-5-methyl-7-(2-((1-methyl-1H-pyrazol-5-yl)amino)pyrimidin-4-yl)-3H-1,2,2a^1,3,5-pentaazaacenaphthylen-4(5H)-one] | 0.113 nM |

These reach a lower IC50. Values come first.

| IC50 | SMILES |
| --- | --- |
| 0.023 nM | CC(C)C[C@H]1CCOc2cc(-c3ccnc(Nc4ccnn4C)n3)cc3nnc1n23 [(S) I-107, 4-(9-isobutyl-8,9-dihydro-7H-6-oxa-1,2,2a^1-triazabenzo[cd]azulen-4-yl)-N-(1-methyl-1H-pyrazol-5-yl)pyrimidin-2-amine] |
| < 0.02 nM | Cn1nccc1Nc1nccc(-c2cc3n4c(nnc4c2)[C@@H](Oc2ccc(F)cc2)CCO3)n1 [(S) I-108, 4-(9-(4-fluorophenoxy)-8,9-dihydro-7H-6-oxa-1,2,2a^1-triazabenzo[cd]azulen-4-yl)-N-(1-methyl-1H-pyrazol-5-yl)pyrimidin-2-amine] |
| < 0.02 nM | Cn1nccc1Nc1nccc(-c2cc3n4c(nnc4c2)[C@@H](Oc2ccc(F)c(F)c2)CCO3)n1 [(S) I-111, 4-(9-(3,4-difluorophenoxy)-8,9-dihydro-7H-6-oxa-1,2,2a^1-triazabenzo[cd]azulen-4-yl)-N-(1-methyl-1H-pyrazol-5-yl)pyrimidin-2-amine] |
| 0.039 nM | CC(C)[C@H]1CNc2cc(-c3ccnc(Nc4ccnn4C)n3)cc3nnc1n23 [Compound I-3, S-4-(3-isopropyl-4,5-dihydro-3H-1,2,2a^1,5-tetraazaacenaphthylen-7-yl)-N-(1-methyl-1H-pyrazol-5-yl)pyrimidin-2-amine] |
| 0.023 nM | CN1C(=O)N[C@H](Cc2ccc(Cl)cc2)c2nnc3cc(-c4ccnc(Nc5ccnn5C)n4)cc1n23 [Compound I-6, (R)-9-(4-chlorobenzyl)-6-methyl-4-(2-((1-methyl-1H-pyrazol-5-yl)amino)pyrimidin-4-yl)-8,9-dihydro-1,2,2a^1,6,8-pentaazabenzo[cd]azulen-7(6H)-one] |
| 0.02 nM | CN1C(=O)N(Cc2ccccc2)c2nnc3cc(-c4ccnc(Nc5ccnn5C)n4)cc1n23 [Compound I-28, 3-benzyl-5-methyl-7-(2-((1-methyl-1H-pyrazol-5-yl)amino)pyrimidin-4-yl)-3H-1,2,2a^1,3,5-pentaazaacenaphthylen-4(5H)-one] |
| < 0.02 nM | Cn1nccc1Nc1nccc(-c2cc3n4c(nnc4c2)C(Cn2cc(C(F)(F)F)cn2)CCO3)n1 (stereo not drawn) [Compound I-73, N-(1-methyl-1H-pyrazol-5-yl)-4-(9-((4-(trifluoromethyl)-1H-pyrazol-1-yl)methyl)-8,9-dihydro-7H-6-oxa-1,2,2a^1-triazabenzo[cd]azulen-4-yl)pyrimidin-2-amine] |
| < 0.02 nM | CN1C(=O)C[C@H](Cc2cccc(Cl)c2)c2nnc3cc(-c4ccnc(Nc5ccnn5C)n4)cc1n23 [Compound I-80, (S)-9-(3-chlorobenzyl)-6-methyl-4-(2-((1-methyl-1H-pyrazol-5-yl)amino)pyrimidin-4-yl)-8,9-dihydro-1,2,2a^1,6-tetraazabenzo[cd]azulen-7(6H)-one] |
| < 0.02 nM | COc1cccc(CC2COc3cc(-c4ccnc(Nc5ccnn5C)n4)cc4nnc2n34)c1 (stereo not drawn) [Compound I-81, 4-(3-(3-methoxybenzyl)-3,4-dihydro-5-oxa-1,2,2a^1-triazaacenaphthylen-7-yl)-N-(1-methyl-1H-pyrazol-5-yl)pyrimidin-2-amine] |
| < 0.02 nM | CN1C(=O)N(Cc2cccc(Cl)c2)c2nnc3cc(-c4ccnc(Nc5ccnn5C)n4)cc1n23 [Compound I-100, 3-(3-chlorobenzyl)-5-methyl-7-(2-((1-methyl-1H-pyrazol-5-yl)amino)pyrimidin-4-yl)-3H-1,2,2a^1,3,5-pentaazaacenaphthylen-4(5H)-one] |
